pEC50, pIC50: −log10 of the molar value. Each block holds one compound with its values, some of them ahead of it.
Columns and labels:
Schistosoma mansoni [1] = assay: Antischistosomal activity against Schistosoma mansoni infected in NMRI mouse assessed as worm burden reduction at 200 mg/kg, po administered as single dose measured after 16 to 18 days; format: functional, organism-based; set-up: scale not given: the % may be the effect or the level left; conditions: time 16-18 day
[2] = target: T1, Cathepsin B1 isotype 1 (Schistosoma mansoni) (UniProt Q8MNY2); assay: Inhibition of Schistosoma mansoni cathepsin B1 using Z-Phe-Arg-aminomethylcoumarin as substrate at 100 uM by fluorescence method relative to control
T1 sequence (whole entry): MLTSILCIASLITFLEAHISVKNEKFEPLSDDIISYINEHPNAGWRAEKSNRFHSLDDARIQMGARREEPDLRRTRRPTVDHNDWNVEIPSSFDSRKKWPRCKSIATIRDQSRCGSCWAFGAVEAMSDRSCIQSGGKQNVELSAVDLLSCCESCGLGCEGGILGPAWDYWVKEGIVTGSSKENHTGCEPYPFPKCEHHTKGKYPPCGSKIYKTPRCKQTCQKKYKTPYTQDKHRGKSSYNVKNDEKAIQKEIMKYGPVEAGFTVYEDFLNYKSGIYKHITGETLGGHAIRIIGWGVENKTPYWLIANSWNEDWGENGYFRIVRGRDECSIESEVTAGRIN

Schistosoma mansoni [3] = assay: Schistosomicidal-activity against Schistosoma mansoni schistosomula at 20 uM incubated for 48 hrs by Alamar Blue assay relative to control; format: functional
Schistosoma mansoni [4] = assay: Schistosomicidal-activity against Schistosoma mansoni schistosomula incubated for 48 hrs by Alamar Blue assay; format: functional, organism-based
[5] = target: T2, Protein deacetylase HDAC6 (Homo sapiens, UniProt Q9UBN7); assay: Inhibition of human HDAC6 using ZMAL(Cbz-(Ac)Lys-AMC as substrate preincubated for 90 mins followed by trypsin addition and measured after 20 mins by fluorimetric method
T2 sequence (Q9UBN7 whole entry): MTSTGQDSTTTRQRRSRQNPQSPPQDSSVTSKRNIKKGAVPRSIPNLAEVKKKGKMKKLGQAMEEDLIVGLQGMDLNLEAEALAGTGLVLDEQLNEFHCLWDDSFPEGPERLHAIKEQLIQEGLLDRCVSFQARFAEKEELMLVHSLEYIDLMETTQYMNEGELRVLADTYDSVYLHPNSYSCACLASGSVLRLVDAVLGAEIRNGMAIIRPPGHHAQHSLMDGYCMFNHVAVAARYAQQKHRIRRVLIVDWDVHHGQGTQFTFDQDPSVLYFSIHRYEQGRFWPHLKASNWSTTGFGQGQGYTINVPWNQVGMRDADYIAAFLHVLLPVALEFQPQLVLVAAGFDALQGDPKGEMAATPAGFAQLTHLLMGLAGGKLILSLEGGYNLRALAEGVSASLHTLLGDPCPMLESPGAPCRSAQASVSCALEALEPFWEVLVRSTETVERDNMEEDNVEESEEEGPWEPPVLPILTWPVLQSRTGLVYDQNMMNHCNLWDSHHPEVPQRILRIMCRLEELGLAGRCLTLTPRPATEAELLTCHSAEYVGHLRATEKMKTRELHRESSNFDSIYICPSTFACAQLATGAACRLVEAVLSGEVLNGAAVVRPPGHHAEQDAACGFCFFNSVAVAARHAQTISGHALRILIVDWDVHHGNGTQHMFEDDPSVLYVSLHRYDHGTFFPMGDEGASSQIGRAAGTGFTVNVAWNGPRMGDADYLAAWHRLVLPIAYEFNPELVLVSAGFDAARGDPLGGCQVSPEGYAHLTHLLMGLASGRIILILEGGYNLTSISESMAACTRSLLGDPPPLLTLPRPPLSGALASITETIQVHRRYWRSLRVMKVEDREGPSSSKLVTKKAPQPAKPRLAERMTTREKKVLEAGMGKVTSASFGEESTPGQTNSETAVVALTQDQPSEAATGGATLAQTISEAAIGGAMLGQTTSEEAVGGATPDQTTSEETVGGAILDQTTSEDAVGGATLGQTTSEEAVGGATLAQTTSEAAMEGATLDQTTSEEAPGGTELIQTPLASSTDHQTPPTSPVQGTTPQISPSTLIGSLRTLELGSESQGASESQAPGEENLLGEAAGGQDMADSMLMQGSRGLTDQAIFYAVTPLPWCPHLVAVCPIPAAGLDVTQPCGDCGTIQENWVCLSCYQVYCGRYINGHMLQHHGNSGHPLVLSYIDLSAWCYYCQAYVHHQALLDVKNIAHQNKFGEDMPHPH

Histone deacetylase 1 = Histone deacetylase 1 (Homo sapiens, UniProt Q13547); assay: Inhibition of human HDAC1 (1 to 482 reidue) expressed in sf9 cells using ZMAL(Cbz-(Ac)Lys-AMC as substrate preincubated for 90 mins followed by trypsin addition and measured after 20 mins by fluorimetric method
Histone deacetylase 8 [6] = target: T3, Histone deacetylase 8 (Homo sapiens, UniProt Q9BY41); assay: Inhibition of human HDAC8 using Fluor de Lys as substrate incubated for 90 mins by fluorescence method
T3 sequence (Q9BY41 whole entry): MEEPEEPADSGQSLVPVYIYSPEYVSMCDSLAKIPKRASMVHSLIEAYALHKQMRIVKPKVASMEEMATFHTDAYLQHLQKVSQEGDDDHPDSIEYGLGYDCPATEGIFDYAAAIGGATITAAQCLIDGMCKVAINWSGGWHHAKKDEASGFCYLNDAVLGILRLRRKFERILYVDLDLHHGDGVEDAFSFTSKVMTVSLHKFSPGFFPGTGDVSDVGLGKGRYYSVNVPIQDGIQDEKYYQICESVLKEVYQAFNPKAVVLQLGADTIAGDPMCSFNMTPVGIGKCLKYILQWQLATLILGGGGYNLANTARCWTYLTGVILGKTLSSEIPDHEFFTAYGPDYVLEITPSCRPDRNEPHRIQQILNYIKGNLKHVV

Histone deacetylase 8 [7] = target: T4, Histone deacetylase 8 (Schistosoma mansoni, UniProt A5H660); assay: Inhibition of Schistosoma mansoni HDAC8 expressed in Escherichia coli using Fluor de Lys as substrate incubated for 90 mins by fluorescence method
T4 sequence (A5H660 whole entry): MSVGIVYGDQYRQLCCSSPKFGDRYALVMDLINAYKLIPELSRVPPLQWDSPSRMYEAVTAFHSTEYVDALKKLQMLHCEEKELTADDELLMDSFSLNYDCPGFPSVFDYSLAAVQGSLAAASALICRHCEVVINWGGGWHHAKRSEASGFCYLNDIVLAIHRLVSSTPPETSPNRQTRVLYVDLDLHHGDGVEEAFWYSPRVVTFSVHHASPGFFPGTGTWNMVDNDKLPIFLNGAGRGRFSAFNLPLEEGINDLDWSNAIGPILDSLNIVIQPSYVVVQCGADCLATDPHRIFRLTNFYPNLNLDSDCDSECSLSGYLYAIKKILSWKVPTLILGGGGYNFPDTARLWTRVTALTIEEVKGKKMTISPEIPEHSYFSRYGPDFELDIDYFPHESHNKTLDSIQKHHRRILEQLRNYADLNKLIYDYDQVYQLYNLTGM

L6 = assay: Cytotoxicity against rat L6 cells measured after 72 hrs by alamar blue assay; format: functional, cell-based; conditions: L6, 72 h
Schistosoma haematobium [8] = assay: Antischistosomal activity against adult Schistosoma haematobium assessed as reduction in worm viability at 100 uM measured after 48 hrs by microscopic method relative to control; format: functional
Schistosoma mansoni [9] = assay: Antischistosomal activity against Schistosoma mansoni infected in NMRI mouse assessed as worm burden reduction at 100 mg/kg, po administered as single dose relative to control; format: functional; set-up: scale not given: the % may be the effect or the level left
Schistosoma mansoni [10] = assay: Antischistosomal activity against adult Schistosoma mansoni measured after 72 hrs by microscopic method; format: functional, organism-based
Schistosoma haematobium [11] = assay: Antischistosomal activity against adult Schistosoma haematobium assessed as reduction in worm viability at 100 uM measured after 4 hrs by microscopic method relative to control; format: functional
Schistosoma mansoni [12] = assay: Antischistosomal activity against Schistosoma mansoni infected in Swiss albino mouse assessed as reduction in intestinal tissue egg burden at 20 mg/kg, po administered for 5 days relative to control; format: functional; set-up: scale not given: the % may be the effect or the level left; conditions: time 5 day
Schistosoma mansoni [13] = assay: Potentiation of praziquantel-induced antischistosomal activity against Schistosoma mansoni infected in Swiss albino mouse assessed as intestinal egg burden at 20 mg/kg, po administered for 5 days (reference value: 67%); format: functional; conditions: time 5 day
Schistosoma mansoni [14] = assay: Antischistosomal activity against male Schistosoma mansoni assessed as worm killing effect at 100 uM measured after 24 hrs by phase-contrast microscopy relative to control; format: functional
Schistosoma mansoni [15] = assay: Antischistosomal activity against Schistosoma mansoni infected in Swiss albino mouse assessed as reduction in worm burden at 20 mg/kg, po administered for 5 days relative to control; format: functional; set-up: scale not given: the % may be the effect or the level left; conditions: time 5 day
Schistosoma mansoni [16] = assay: Potentiation of praziquantel-induced antischistosomal activity against Schistosoma mansoni infected in Swiss albino mouse assessed as worm burden at 20 mg/kg, po administered for 5 days (reference value: 60%); format: functional; conditions: time 5 day
Histone deacetylase 8 [17] = target: T3, Histone deacetylase 8; assay: Inhibition of human HDAC8 using Fluor de Lys as substrate by fluorimetric method
[18] = target: T5, HDAC1 (histone deacetylase 1) (Homo sapiens, UniProt Q13547); assay: Inhibition of human HDAC1 at 200 uM using Z-Lys(Ac)-AMC as substrate by fluorimetric method relative to control; conditions: HDAC1 enzyme, probe Z-Lys(Ac)-AMC
[19] = target: T2, Protein deacetylase HDAC6; assay: Inhibition of human HDAC6 using Z-Lys(Ac)-AMC as substrate by fluorimetric method
Histone deacetylase 8 [20] = target: T4, Histone deacetylase 8; assay: Inhibition of Schistosoma mansoni HDAC8 using fluorogenic substrate by fluorescence method
[21] = target: T5, HDAC1 (histone deacetylase 1); assay: Inhibition of human HDAC1 using Z-Lys(Ac)-AMC as substrate at 1 uM by fluorimetric method relative to control; conditions: HDAC1 enzyme, probe Z-Lys(Ac)-AMC
Schistosoma japonicum [22] = assay: Antischistosomal activity against juvenile Schistosoma japonicum assessed as reduction in worm vitality at 25 uM incubated for 72 hrs relative to control; format: functional; set-up: scale not given: the % may be the effect or the level left
Schistosoma japonicum [23] = assay: Antischistosomal activity against adult Schistosoma japonicum assessed as reduction in worm vitality at >10 uM incubated for 48 hrs relative to control; format: functional; set-up: scale not given: the % may be the effect or the level left; conditions: dose microM >10
Schistosoma japonicum [24] = assay: Antischistosomal activity against Schistosoma japonicum infected in ICR mouse assessed as total worm reduction at 250 mg/kg, po administered as single dose relative to control; format: functional; set-up: scale not given: the % may be the effect or the level left
Schistosoma mansoni [25] = assay: Antischistosomal activity against Schistosoma mansoni Liberian infected in NMRI mouse assessed as worm burden reduction at 100 mg/kg, po measured after 14 days relative to control; format: functional; set-up: scale not given: the % may be the effect or the level left; conditions: time 14 day
Schistosoma haematobium [26] = assay: Antischistosomal activity against Schistosoma haematobium Egyptian infected in NMRI mouse assessed as worm burden reduction at 200 mg/kg, po measured after 14 days; format: functional; set-up: scale not given: the % may be the effect or the level left; conditions: time 14 day
Schistosoma japonicum [27] = assay: Antischistosomal activity against Schistosoma japonicum assessed as worm mortality at 10 ug/ml incubated for 72 hrs by microscopic method relative to control; format: functional; conditions: dose 10 µg/ml
Schistosoma mansoni [28] = assay: Antischistosomal activity against Schistosoma mansoni NTS incubated for 72 hrs by microscopic method; format: functional, organism-based
Schistosoma mansoni [29] = assay: Antischistosomal activity against adult Schistosoma mansoni incubated for 72 hrs by microscopic method; format: functional, organism-based

T5 sequence (Q13547 whole entry): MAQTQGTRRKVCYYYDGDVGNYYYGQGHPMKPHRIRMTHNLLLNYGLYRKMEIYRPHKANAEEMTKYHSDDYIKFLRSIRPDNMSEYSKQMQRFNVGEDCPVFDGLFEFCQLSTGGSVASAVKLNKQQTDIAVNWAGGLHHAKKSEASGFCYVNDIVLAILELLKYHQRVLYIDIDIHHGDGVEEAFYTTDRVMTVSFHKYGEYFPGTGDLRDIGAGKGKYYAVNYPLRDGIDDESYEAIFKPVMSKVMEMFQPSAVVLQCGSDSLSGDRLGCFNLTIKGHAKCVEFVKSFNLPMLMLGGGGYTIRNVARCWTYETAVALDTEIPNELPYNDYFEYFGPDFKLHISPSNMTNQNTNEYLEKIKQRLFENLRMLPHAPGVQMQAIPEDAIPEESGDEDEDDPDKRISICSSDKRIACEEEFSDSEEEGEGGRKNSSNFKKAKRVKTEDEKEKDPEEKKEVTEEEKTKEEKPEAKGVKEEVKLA
Sequence of Histone deacetylase 1 (Q13547 whole entry): as above

Compound: Fc1ccc(Cl)cc1-c1nc(Nc2ccncc2)c2nccnc2n1
Activity (Schistosoma mansoni [1]): 51.6%

Compound: CCCC(=O)OCCNC(=O)c1ccc(CCl)c([N+](=O)[O-])c1
inhibition [2]: < 27%

Compound: O=C(/C=C/c1ccccc1Sc1ccc(Cl)cc1)NO
Activity (Schistosoma mansoni [3]): 97% | pEC50 (Schistosoma mansoni [4]): 4.93 | pIC50 [5]: 5.49 | pIC50 (Histone deacetylase 1): 5.11 | pIC50 (Histone deacetylase 8 [6]): 6.74 | pIC50 (Histone deacetylase 8 [7]): 6.74

Compound: O=C(/C=C/c1ccccc1Oc1c(Cl)cccc1Cl)NO
Activity (Schistosoma mansoni [3]): 89% | pEC50 (Schistosoma mansoni [4]): 5.19 | pIC50 [5]: 5.09 | pIC50 (Histone deacetylase 1): 4.69 | pIC50 (Histone deacetylase 8 [6]): 6.33 | pIC50 (Histone deacetylase 8 [7]): 6.36

pIC50 (Schistosoma mansoni [10]): 4.95
Compound: CC(C)N(Cc1ccccc1)CC1CCc2cc(CCl)c([N+](=O)[O-])cc2N1 (stereo not drawn)
pIC50 (L6): < 4.14 | Activity (Schistosoma haematobium [8]): 100% | Activity (Schistosoma mansoni [9]): 76.1% | Activity (Schistosoma haematobium [11]): 75%

Compound: COc1ccc(-c2nc(-c3ccccc3OC)[nH]c2-c2ccc(OC)cc2)cc1
Activity (Schistosoma mansoni [12]): <17% | Activity (Schistosoma mansoni [13]): 83% | Activity (Schistosoma mansoni [14]): 33% | Activity (Schistosoma mansoni [15]): <17% | Activity (Schistosoma mansoni [16]): 88%

Compound: O=C(NO)c1cccc(C(=O)NOCc2ccc(Cl)cc2Cl)c1
pIC50 (Histone deacetylase 8 [17]): 6.20 | inhibition at 200 µM [18]: 47.5% | pIC50 [19]: 5.29 | pIC50 (Histone deacetylase 8 [20]): 6.40 | inhibition at 1 µM [21]: < 10%

Compound: CC(C)NCC1CCc2cc(CO)c([N+](=O)[O-])cc2N1 (stereo not drawn) [OXAMNIQUINE]
Activity (Schistosoma mansoni [9]): 99.2%

Compound: O=C(C1CCCCC1)N1CC(=O)N2CCc3c(Br)cccc3C2C1 (stereo not drawn)
Activity (Schistosoma japonicum [22]): <10% | Activity (Schistosoma japonicum [23]): 100% | Activity (Schistosoma japonicum [24]): 54.3%

Compound: OC(c1cc(-c2ccccc2)nc2c(Cl)cc(Cl)cc12)C1CCCCN1 (stereo not drawn)
Activity (Schistosoma mansoni [25]): 87% | Activity (Schistosoma haematobium [26]): 100%

Compound: OC(CN1CCCCC1)Cn1c2ccc(Cl)cc2c2cc(Cl)ccc21 (stereo not drawn)
Activity (Schistosoma japonicum [27]): 100%

pIC50 (Schistosoma mansoni [28]): 6.70 | pIC50 (Schistosoma mansoni [29]): 6.22
Compound: O=C(Nc1cc(C(F)(F)F)ccc1Cl)c1ccccc1O
